Measured values taken from ChEMBL document CHEMBL1938263, “Design, synthesis, biological evaluation, and comparative Cox1 and Cox2 docking of p-substituted benzylidenamino phenyl esters of ibuprofenic and mefenamic acids” (Bioorg Med Chem, 2012).

Experiments:
Rattus norvegicus [1] = assay: Antiinflammatory activity in Wistar CF rat assessed as inhibition of carrageenan-induced paw oedema at 100 mg/kg, po administered 1 hr prior to carrageenan-challenge after 3 hrs (reference value: 74.63 +/- 7.13 %); type: functional
Rattus norvegicus [2] = assay: Ulcerogenic activity in fasted Wistar albino rat assessed as ulcer index at 100 mg/kg, po after 5 hrs; type: toxicity, organism-based; design: dose 100 mg/kg, route oral; conditions: in vivo
Mus musculus [3] = assay: Analgesic activity in mouse assessed as latency time of jumping as nociceptive response at 250 mg/kg, po after 0.5 hrs by hot plate test (reference value: 11.16 +/- 1.66 sec); type: functional
Mus musculus [4] = assay: Analgesic activity in mouse assessed as latency time of paw licking as nociceptive response at 250 mg/kg, po after 1.5 hrs by hot plate test (reference value: 16.8 +/- 2.12 sec); type: functional
Mus musculus [5] = assay: Analgesic activity in mouse assessed as latency time of paw licking as nociceptive response at 250 mg/kg, po after 0.5 hrs by hot plate test (reference value: 11.16 +/- 1.66 sec); type: functional
Rattus norvegicus [6] = assay: Antiinflammatory activity in Wistar CF rat assessed as inhibition of carrageenan-induced paw oedema at 100 mg/kg, po administered 1 hr prior to carrageenan-challenge after 4 hrs (reference value: 78.14 +/- 7.1 %); type: functional
Mus musculus [7] = assay: Analgesic activity in mouse assessed as latency time of jumping as nociceptive response at 250 mg/kg, po after 1 hr by hot plate test (reference value: 14.3 +/- 0.99 sec); type: functional
Rattus norvegicus [8] = assay: Antiinflammatory activity in Wistar CF rat assessed as inhibition of carrageenan-induced paw oedema at 100 mg/kg, po administered 1 hr prior to carrageenan-challenge after 1 hr (reference value: 55.7 +/- […] %); type: functional
Mus musculus [9] = assay: Analgesic activity in mouse assessed as latency time of paw licking as nociceptive response at 250 mg/kg, po after 1 hr by hot plate test (reference value: 14.3 +/- 0.99 sec); type: functional
Mus musculus [10] = assay: Analgesic activity in mouse assessed as latency time of jumping as nociceptive response at 250 mg/kg, po after 1.5 hrs by hot plate test (reference value: 16.8 +/- 2.12 sec); type: functional
Rattus norvegicus [11] = assay: Antiinflammatory activity in Wistar CF rat assessed as inhibition of carrageenan-induced paw oedema at 100 mg/kg, po administered 1 hr prior to carrageenan-challenge after 2 hrs (reference value: 68.6 +/- 7.14 %); type: functional
Rattus norvegicus [12] = assay: Ulcerogenic activity in fasted Wistar albino rat assessed as severity of ulcer at 100 mg/kg, po after 5 hrs; type: toxicity, organism-based; design: dose 100 mg/kg, route oral; conditions: in vivo

Row | Compound | inhibition in vivo at 100 mg/kg (Rattus norvegicus [1]) [%] | UI (Rattus norvegicus [2]) | Time (Mus musculus [3]) [s] | Time (Mus musculus [4]) [s] | Time (Mus musculus [5]) [s] | inhibition in vivo at 100 mg/kg (Rattus norvegicus [6]) [%] | Time (Mus musculus [7]) [s] | inhibition in vivo at 100 mg/kg (Rattus norvegicus [8]) [%] | Time (Mus musculus [9]) [s] | Time (Mus musculus [10]) [s] | inhibition in vivo at 100 mg/kg (Rattus norvegicus [11]) [%] | Activity (Rattus norvegicus [12])
1 | COc1ccc(/C=N/c2ccc(OC(=O)C(C)c3ccc(CC(C)C)cc3)cc2)cc1 (stereo not drawn) | 61.2 | 0 | 20.18 | 28.1 | 20.18 | 64.7 | 35.14 | 54 | 35.14 | 28.1 | 56.2 | Non-toxic
2 | CC(C)Cc1ccc(C(C)C(=O)Oc2ccc(/N=C/c3ccc([N+](=O)[O-])cc3)cc2)cc1 (stereo not drawn) | 50.3 | 0 | 23.52 | 24.98 | 23.52 | 53.8 | 34.62 | 29.9 | 34.62 | 24.98 | 44.4 | Non-toxic
3 | CC(C)Cc1ccc(C(C)C(=O)Oc2ccc(/N=C/c3ccc(N(C)C)cc3)cc2)cc1 (stereo not drawn) | 104 | 0 | 22.22 | 23 | 22.22 | 107 | 32.14 | 71.7 | 32.14 | 23 | 96.1 | Non-toxic
4 | CC(C)Cc1ccc(C(C)C(=O)Oc2ccc(/N=C/c3ccc(Br)cc3)cc2)cc1 (stereo not drawn) | 44.7 | 0 | 19.62 | 26.12 | 19.62 | 49.3 | 33.44 | 36.5 | 33.44 | 26.12 | 40.6 | Non-toxic
5 | COc1ccc(/C=N/c2ccc(OC(=O)c3ccccc3Nc3cccc(C)c3C)cc2)cc1 | 57 | 0 | 21.68 | 18.46 | 21.68 | 62.1 | 25.08 | 35.2 | 25.08 | 18.46 | 49.4 | Non-toxic
6 | Cc1cccc(Nc2ccccc2C(=O)Oc2ccc(/N=C/c3ccc([N+](=O)[O-])cc3)cc2)c1C | 43.8 | 0 | 18.04 | 20.82 | 18.04 | 52.5 | 25.98 | 36.9 | 25.98 | 20.82 | 41.1 | Non-toxic
7 | Cc1cccc(Nc2ccccc2C(=O)Oc2ccc(/N=C/c3ccc(N(C)C)cc3)cc2)c1C | 53.4 | 0 | 23.16 | 15.96 | 23.16 | 63.5 | 24.4 | 41.6 | 24.4 | 15.96 | 45.6 | Non-toxic
8 | Cc1cccc(Nc2ccccc2C(=O)Oc2ccc(/N=C/c3ccc(Br)cc3)cc2)c1C | 46.5 | 0 | 20.72 | 19.38 | 20.72 | 51.7 | 21.22 | 32 | 21.22 | 19.38 | 38.5 | Non-toxic
9 | CC(C)Cc1ccc(C(C)C(=O)O)cc1 (racemic) [IBUPROFEN] | 41.8 | 4.03 | 17.84 | 19 | 17.84 | 44 | 16.1 | 30 | 16.1 | 19 | 36.2 | Toxic
